# Like-named read-outs stand apart in the source and are kept apart here.
# Assays:
# DU-145 = test: NCI one-dose assay; type: cell-based; details: Homo sapiens, DU-145, Prostate cancer, read-out: Cell growth inhibition %
# ACHN = test: NCI one-dose assay; type: cell-based; details: Homo sapiens, Renal cancer, read-out: Cell growth inhibition %
# SK-MEL-28 = test: NCI one-dose assay; type: cell-based; details: Homo sapiens, SK-MEL-28, Melanoma, read-out: Cell growth inhibition %
# SR = test: NCI one-dose assay; type: cell-based; details: Homo sapiens, Leukemia, read-out: Cell growth inhibition %
# NCI-H226 = test: NCI one-dose assay; type: cell-based; details: Homo sapiens, NCI-H226, Non-small cell lung cancer, read-out: Cell growth inhibition %
# IGROV1 = test: NCI one-dose assay; type: cell-based; details: Homo sapiens, IGROV-1, IGROV1, Ovarian cancer, read-out: Cell growth inhibition %
# OVCAR-4 [1] = test: NCI one-dose assay; type: cell-based; details: Homo sapiens, OVCAR-4, Ovarian cancer, read-out: Cell growth inhibition %
# NCI/ADR-RES = test: NCI one-dose assay; type: cell-based; details: Homo sapiens, Ovarian cancer, read-out: Cell growth inhibition %
# TK-10 = test: NCI one-dose assay; type: cell-based; details: Homo sapiens, TK-10, Renal cancer, read-out: Cell growth inhibition %
# MALME-3M = test: NCI one-dose assay; type: cell-based; details: Homo sapiens, Melanoma, read-out: Cell growth inhibition %
# MCF7 = test: NCI one-dose assay; type: cell-based; details: Homo sapiens, MCF7, Breast cancer, read-out: Cell growth inhibition %
# LOX IMVI = test: NCI one-dose assay; type: cell-based; details: Homo sapiens, Melanoma, read-out: Cell growth inhibition %
# OVCAR-5 = test: NCI one-dose assay; type: cell-based; details: Homo sapiens, OVCAR-5, Ovarian cancer, read-out: Cell growth inhibition %
# MDA-MB-468 [2] = test: NCI one-dose assay; type: cell-based; details: Homo sapiens, MDA-MB-468, Breast cancer, read-out: Cell growth inhibition %
# SK-OV-3 = test: NCI one-dose assay; type: cell-based; details: Homo sapiens, SK-OV-3, Ovarian cancer, read-out: Cell growth inhibition %
# SNB-19 = test: NCI one-dose assay; type: cell-based; details: Homo sapiens, SNB-19, CNS cancer, read-out: Cell growth inhibition %
# BT-549 = test: NCI one-dose assay; type: cell-based; details: Homo sapiens, BT-549, Breast cancer, read-out: Cell growth inhibition %
# SN12C = test: NCI one-dose assay; type: cell-based; details: Homo sapiens, Renal cancer, read-out: Cell growth inhibition %
# PC-3 = test: NCI one-dose assay; type: cell-based; details: Homo sapiens, PC-3, Prostate cancer, read-out: Cell growth inhibition %
# NCI-H23 = test: NCI one-dose assay; type: cell-based; details: Homo sapiens, NCI-H23, Non-small cell lung cancer, read-out: Cell growth inhibition %
# NCI-H460 [3] = test: NCI one-dose assay; type: cell-based; details: Homo sapiens, NCI-H460, Non-small cell lung cancer, read-out: Cell growth inhibition %
# NCI-H522 = test: NCI one-dose assay; type: cell-based; details: Homo sapiens, NCI-H522, Non-small cell lung cancer, read-out: Cell growth inhibition %
# A498 = test: NCI one-dose assay; type: cell-based, human; details: Homo sapiens, A498, A498, Renal cancer, read-out: Cell growth inhibition %
# NCI-H460 [4] = test: NCI five-dose assay; type: cell-based, human; details: for GI50 / CC50: Homo sapiens; for GI50: read-out: GI50 Conc. per Cell Lines; for CC50: read-out: LC50 (the source's name)
# HT29 = test: NCI five-dose assay; type: cell-based, human; details: for GI50: read-out: GI50 Conc. per Cell Lines
# COLO205 = test: NCI five-dose assay; type: cell-based, human; details: for GI50 / CC50: Homo sapiens, COLO 205; for GI50: read-out: GI50 Conc. per Cell Lines; for CC50: read-out: LC50 (the source's name)
# NCI 60 cell lines = test: NCI one-dose assay, full panel; type: cell-based, human; details: Homo sapiens, 60 cell, read-out: cell growth inhibition percentage, range
# Experimental: The National Cancer Institute (NCI), Bethesda, USA, selected the final compounds 6a–j and 7a–j for in vitro anticancer screening. An initial in vitro single-dose anticancer experiment was performed with the entire NCI 60 cell lines derived from nine tumor subpanel cancer cell lines. The results for each compound were illustrated as a mean graph showing the percentage growth of treated cells compared to untreated control cells (see Supplementary Materials).
# The NCI anticancer screening process has been thoroughly detailed. The Drug Evaluation Branch of the National Cancer Institute in Bethesda, […], USA, established the procedure and conducted the anticancer assay on 60 human tumor cell lines from nine neoplastic cancers.
# OVCAR-4 [5] = test: NCI five-dose assay; type: cell-based, human; details: for LC50 / GI50: Homo sapiens; for GI50: read-out: GI50 Conc. per Cell Lines
# MDA-MB-468 [6] = test: NCI five-dose assay; type: cell-based, human; details: for LC50 / GI50: Homo sapiens; for GI50: read-out: GI50 Conc. per Cell Lines
# HOP-62 = test: NCI five-dose assay; type: cell-based, human; details: for GI50: read-out: GI50 Conc. per Cell Lines
# [7] = tested on: Non-small cell lung cancer subpanel; test: NCI five-dose assay, subpanel mean; type: cell-based, human; details: for GI50: Homo sapiens, read-out: GI50 Subpanel MID b; for GI50 Selectivity Ratio (MID a/MID b): Non-small cell lung cancer subpanel
# [8] = NCI-H460, Non-small cell lung cancer
structure (smiles),measurement,setting,value
"O/N=C(\CSc1nnc(-c2c[nH]c3ccccc23)n1-c1ccccc1)c1ccc(Cl)cc1 [Compound 7j, (Z)-2-((5-(1H-Indol-3-yl)-4-phenyl-4H-1,2,4-triazol-3-yl)thio)-1-(4-chlorophenyl) Ethanone Oxime]",inhibition at 10 µM,DU-145,131%
same,inhibition at 10 µM,ACHN,96.7%
same,inhibition at 10 µM,SK-MEL-28,78.8%
same,inhibition at 10 µM,SR,87.2%
same,inhibition at 10 µM,NCI-H226,85.7%
same,inhibition at 10 µM,IGROV1,134%
same,inhibition at 10 µM,OVCAR-4 [1],181%
same,inhibition at 10 µM,NCI/ADR-RES,170%
same,inhibition at 10 µM,TK-10,123%
same,inhibition at 10 µM,MALME-3M,88.9%
same,inhibition at 10 µM,MCF7,96.7%
same,inhibition at 10 µM,LOX IMVI,189%
same,inhibition at 10 µM,OVCAR-5,143%
same,inhibition at 10 µM,MDA-MB-468 [2],185%
same,inhibition at 10 µM,SK-OV-3,102%
same,inhibition at 10 µM,SNB-19,82.6%
same,inhibition at 10 µM,BT-549,167%
same,inhibition at 10 µM,SN12C,116%
same,inhibition at 10 µM,PC-3,138%
same,inhibition at 10 µM,NCI-H23,52.7%
same,inhibition at 10 µM,NCI-H460 [3],89.5%
same,inhibition at 10 µM,NCI-H522,87.6%
same,inhibition at 10 µM,A498,16.3%
same,GI50,"NCI-H460 [4]; NCI-H460, five dose levels",3.33 µM
same,CC50,"NCI-H460 [4]; NCI-H460, five dose levels",> 100 µM
same,TGI Conc. per Cell Lines,"NCI-H460 [4]; NCI-H460, five dose levels",15.7 µM
same,TGI Conc. per Cell Lines,"HT29; HT29, five dose levels",11.8 µM
same,GI50,"HT29; Homo sapiens, HT-29, HT29, five dose levels",3.04 µM
same,CC50,"HT29; Homo sapiens, HT-29, HT29, five dose levels, read-out: LC50 (the source's name)",> 100 µM
same,TGI Conc. per Cell Lines,"COLO205; COLO205, five dose levels",25.9 µM
same,GI50,"COLO205; COLO205, five dose levels",4.47 µM
same,CC50,"COLO205; COLO205, five dose levels",> 100 µM
same,inhibition at 10 µM,NCI 60 cell lines; six cell lines with moderate activity,52 to 66%
same,inhibition at 10 µM,NCI 60 cell lines; twenty-eight cell lines with total cell death,102 to 200%
same,inhibition at 10 µM,NCI 60 cell lines; twenty-four cell lines,69.5 to 99.3%
same,LC50,"OVCAR-4 [5]; OVCAR-4, five dose levels",> 100 µM
same,GI50,"OVCAR-4 [5]; OVCAR-4, five dose levels",1.96 µM
same,TGI Conc. per Cell Lines,"OVCAR-4 [5]; OVCAR-4, five dose levels",4.32 µM
same,LC50,"MDA-MB-468 [6]; MDA-MB-468, five dose levels",46 µM
same,GI50,"MDA-MB-468 [6]; MDA-MB-468, five dose levels",1.72 µM
same,TGI Conc. per Cell Lines,"MDA-MB-468 [6]; MDA-MB-468, five dose levels",3.47 µM
same,TGI Conc. per Cell Lines,"HOP-62; HOP-62, five dose levels",3.65 µM
same,GI50,"HOP-62; Homo sapiens, HOP-62, five dose levels",1.74 µM
same,GI50,"[7]; Non-small cell lung cancer, average sensitivity of all cell lines of the subpanel",3.86 µM
same,GI50 Selectivity Ratio (MID a/MID b),[7],0.945
"Cc1ccc(/C(CSc2nnc(-c3c[nH]c4ccccc34)n2-c2ccccc2)=N/O)cc1 [Compound 7h, (Z)-2-((5-(1H-Indol-3-yl)-4-phenyl-4H-1,2,4-triazol-3-yl)thio)-1-(p-tolyl)ethanone Oxime]",inhibition at 10 µM,DU-145,160%
same,inhibition at 10 µM,ACHN,162%
same,inhibition at 10 µM,SK-MEL-28,37.5%
same,inhibition at 10 µM,SR,90.2%
same,inhibition at 10 µM,NCI-H226,141%
same,inhibition at 10 µM,IGROV1,162%
same,inhibition at 10 µM,OVCAR-4 [1],187%
same,inhibition at 10 µM,NCI/ADR-RES,168%
same,inhibition at 10 µM,TK-10,165%
same,inhibition at 10 µM,MALME-3M,83.3%
same,inhibition at 10 µM,MCF7,155%
same,inhibition at 10 µM,LOX IMVI,188%
same,inhibition at 10 µM,OVCAR-5,149%
same,inhibition at 10 µM,MDA-MB-468 [2],189%
same,inhibition at 10 µM,SK-OV-3,88.5%
same,inhibition at 10 µM,SNB-19,119%
same,inhibition at 10 µM,BT-549,176%
same,inhibition at 10 µM,SN12C,137%
same,inhibition at 10 µM,PC-3,147%
same,inhibition at 10 µM,NCI-H23,46.7%
same,inhibition at 10 µM,NCI-H460 [3],98%
same,inhibition at 10 µM,NCI-H522,76.2%
same,inhibition at 10 µM,A498,8.13%
same,CC50,"NCI-H460 [4]; NCI-H460, Non-small cell lung cancer, 48 h",6.55 µM
same,GI50,NCI-H460 [4]; [8],3.18 µM
same,TGI Conc. per Cell Lines,NCI-H460 [4]; [8],12.20 µM
same,TGI Conc. per Cell Lines,"HT29; HT29, Colon cancer",4.43 µM
same,GI50,"HT29; Homo sapiens, HT-29, HT29, Colon cancer",1.99 µM
same,TGI Conc. per Cell Lines,"COLO205; COLO205, Colon cancer",37.40 µM
same,CC50,"COLO205; COLO205, Colon cancer, 48 h",> 100 µM
same,GI50,"COLO205; COLO205, Colon cancer",3.77 µM
same,inhibition at 10 µM,NCI 60 cell lines; sixteen cell lines,72 to 98%
same,inhibition at 10 µM,NCI 60 cell lines; thirty-six cell lines with complete cell death,106 to 200%
same,LC50,"OVCAR-4 [5]; OVCAR-4, Ovarian cancer, 48 h",7.04 µM
same,GI50,"OVCAR-4 [5]; OVCAR-4, Ovarian cancer",1.75 µM
same,TGI Conc. per Cell Lines,"OVCAR-4 [5]; OVCAR-4, Ovarian cancer",3.51 µM
same,LC50,"MDA-MB-468 [6]; MDA-MB-468, Breast cancer, 48 h",5.64 µM
same,GI50,"MDA-MB-468 [6]; MDA-MB-468, Breast cancer",1.5 µM
same,TGI Conc. per Cell Lines,"MDA-MB-468 [6]; MDA-MB-468, Breast cancer",2.91 µM
same,TGI Conc. per Cell Lines,"HOP-62; HOP-62, Non-small cell lung cancer",3.42 µM
same,CC50,"HOP-62; Homo sapiens, HOP-62, Non-small cell lung cancer, 48 h, read-out: LC50 (the source's name)",6.93 µM
same,GI50,"HOP-62; Homo sapiens, HOP-62, Non-small cell lung cancer",1.69 µM
same,GI50,[7]; average sensitivity of all cell lines of the Non-small cell lung cancer subpanel,4.44 µM
same,GI50 Selectivity Ratio (MID a/MID b),[7],0.68
"COc1ccc(/C(CSc2nnc(-c3c[nH]c4ccccc34)n2-c2ccccc2)=N/O)cc1 [Compound 7g, (Z)-2-((5-(1H-Indol-3-yl)-4-phenyl-4H-1,2,4-triazol-3-yl)thio)-1-(4-methoxyphenyl) Ethanone Oxime]",inhibition at 10 µM,DU-145,57%
same,inhibition at 10 µM,ACHN,77.7%
same,inhibition at 10 µM,SK-MEL-28,62.6%
same,inhibition at 10 µM,SR,89.1%
same,inhibition at 10 µM,NCI-H226,81.8%
same,inhibition at 10 µM,IGROV1,56.9%
same,inhibition at 10 µM,OVCAR-4 [1],83.2%
same,inhibition at 10 µM,NCI/ADR-RES,61.8%
same,inhibition at 10 µM,TK-10,57.4%
same,inhibition at 10 µM,MALME-3M,26.9%
same,inhibition at 10 µM,MCF7,85.5%
same,inhibition at 10 µM,LOX IMVI,178%
same,inhibition at 10 µM,OVCAR-5,45%
same,inhibition at 10 µM,MDA-MB-468 [2],99.4%
same,inhibition at 10 µM,SK-OV-3,47.9%
same,inhibition at 10 µM,SNB-19,59.7%
same,inhibition at 10 µM,BT-549,83.5%
same,inhibition at 10 µM,SN12C,54.2%
same,inhibition at 10 µM,PC-3,76.9%
same,inhibition at 10 µM,NCI-H23,58.4%
same,inhibition at 10 µM,NCI-H460 [3],82.8%
same,inhibition at 10 µM,NCI-H522,63.5%
same,inhibition at 10 µM,A498,30.2%

# From PMC11859928, “Design, Synthesis, and Antiproliferative Activity of Novel Indole/1,2,4-Triazole Hybrids as Tubulin Polymerization Inhibitors” (Pharmaceuticals, 2025)
